Experimental data from patent publication US20240277705A1, “DOSAGE REGIMENS FOR ECUBECTEDIN” (PHARMA MAR S.A., priority 2021, published 2024).

How the values were obtained:
[1] = test system: RXF 486L (hypernephroma, poorly differentiated); experiment: Propidium iodide monolayer cell proliferation assay, RXF 486L; type: cell-based, human; details: four days of treatment
Procedure: Working stock solution of PM14 was prepared in DMSO at a concentration of 1.042 mM and small aliquots were stored at −20° C. On each day of an experiment, a frozen aliquot of the working stock solution was thawed and stored at room temperature prior to and during treatment.
Subsequent dilutions were done with complete RPMI 1640 cell culture medium. DMSO stock solutions were first diluted 1:22 (corresponding to 4.5% v/v DMSO). Starting with this solution, serial dilutions in half-log steps with cell culture medium were done using an intermediate dilution plate. Finally, 10 μl taken from the intermediate dilution plate were transferred to 140 μl/well of the cell culture plate. […]
Cell proliferation assay: A modified propidium iodide (PI) based monolayer assay was used to assess the anti-cancer activity of the compounds (Dengler WA, Schulte J, Berger DP, Mertelsmann R, Fiebig HH, Anti-Cancer Drugs 1995, 6: 522-532). Briefly, cells were harvested from exponential phase cultures, counted and plated in 96 well flat-bottom microtiter plates at a cell density of 4,000 to 30,000 cells/well dependent on the cell line's growth rate. […] After an incubation period of 1-2 hours at room temperature, fluorescence (FU) was measured using the Enspire Multimode Plate Reader (excitation A=530 nm, emission A=620 nm) to quantify the amount of attached viable cells. […]

MEXF 1341L (melanoma) = experiment: Propidium iodide monolayer cell proliferation assay, MEXF 1341L; type: cell-based, human; details: MEXL 1341L
Procedure: Cell proliferation assay: A modified propidium iodide (PI) based monolayer assay was used to assess the anti-cancer activity of the compounds (Dengler WA, Schulte J, Berger DP, Mertelsmann R, Fiebig HH, Anti-Cancer Drugs 1995, 6: 522-532). Briefly, cells were harvested from exponential phase cultures, counted and plated in 96 well flat-bottom microtiter plates at a cell density of 4,000 to 30,000 cells/well dependent on the cell line's growth rate. After a 24 h recovery period, to allow the cells to resume exponential growth, 10 μl of culture medium (4 control wells/cell line/plate) or of culture medium with test compounds were added. PM14 was applied at ten concentrations in half-log increments in duplicates up to 3.16 pM and treatment continued for four days. […] After an incubation period of 1-2 hours at room temperature, fluorescence (FU) was measured using the Enspire Multimode Plate Reader (excitation A=530 nm, emission A=620 nm) to quantify the amount of attached viable cells.
IC50 and IC70 values were calculated by 4 parameter non-linear curve fit using Oncotest Warehouse Software. […]
IC50 values were determined as described in Example 2, but using the following human cancer cell lines: • MEXF 276L (melanoma) • MEXF 462NL (melanoma) • MEXF 1341L (melanoma)

[2] = Phase I dose-escalating study, pharmacokinetics; type: in vivo
Excerpt: Open-label, dose-escalating, phase I trial of PM14 administered as a 3-hour infusion i.v. every 3 weeks (q3wk) in human patients (pts) with advanced solid tumors, adequate organ function and ECOG PS score of 0-1. Two schedules were explored: Schedule A (Day 1 [D1], Day 8 [D8]) and Schedule B (D1).
Secondary Endpoints • Safety: patients will be evaluable for safety if they have received at least one partial infusion of PM14. AEs will be graded according to the NCI-CTCAE v.4. Additionally, treatment-related discontinuations and treatment compliance (dose reduction, skipped doses and/or treatment delays due to AEs), will be described. • Pharmacokinetics: PK analyses will be evaluated in plasma and urine by standard non-compartmental analysis (compartmental modeling may be performed if appropriate). Plasma samples for PM14 PK analysis will be obtained in Cycle 1 from all patients, and also in Cycle 2 from patients treated during Step D of the CRM. In addition, the urine produced during Day 1 of Cycle 1 and Cycle 2 will be collected from patients treated during Step D of the CRM. • Pharmacogenetics: the presence or absence of PGt polymorphisms in genes relevant for PM14 disposition (distribution, metabolism and excretion) from a single blood sample collected at any time during the trial (but preferably at the same time as the pre-treatment PK sample on Day 1 of Cycle 1) will be assessed to explain individual variability in main PK parameters. • Pharmacogenomics: this exploratory analysis will be performed in those patients who sign the Informed Consent Form (ICF) for the PGx study. mRNA or protein expression levels of factors involved in DNA repair mechanisms, or related to the mechanism of action of PM14, will be evaluated from available tumor tissue samples obtained at diagnosis or relapse and in cell-free ctDNA. Their mutational status might also be analyzed, if relevant. Their correlation with the clinical response and outcome after treatment will be assessed. • Efficacy: patients will be evaluable for efficacy if they receive at least one complete infusion of PM14 and have at least one clinical or radiological tumor assessment as per RECIST v.1.1 or serum markers, or if they are considered to have failed treatment. Treatment failure will be defined as clinical deterioration, death due to PD or treatment discontinuation due to any treatment-related toxicity before any appropriate tumor assessments have been performed.

## COc1c(C)cc2c(c1O)[C@@H]1[C@@H]3[C@@H]4SC[C@]5(N[C@H](CO)Cc6c5[nH]c5ccccc65)C(=O)OC[C@@H](c5c6c(c(C)c(OC(C)=O)c54)OCO6)N3[C@@H](O)[C@H](C2)N1C [PM14, ECUBECTEDIN]
[1]; Homo sapiens, 96 h, read-out: IC50, μM (geometric mean)
  IC50: 0.002 µM
[1]
  IC70, μM (geometric mean): 0.002 µM
MEXF 1341L (melanoma); Homo sapiens, MEXF 1341L, read-out: IC50, μM (geometric mean)
  IC50: 0.0004 µM
MEXF 1341L (melanoma)
  IC70, μM (geometric mean): 0.0006 µM
[2]; human, in vivo
  Vd: 128 L
  clearance: 98.3 mL/min
[2]; human, in vivo, half-life
  half-life: 16 h
[2]; human, in vivo, terminal half-life, median (range)
  half-life: 15.9 h
[2]; patients
  administered dose recovered in urine: Less than 1.6%
  distribution into peripheral tissues: moderate
  hepatic extraction ratio: low
[2]; tested doses 0.25-5.6 mg/rn^2
  pharmacokinetics, dose linearity: Linear pharmacokinetics
